What was measured:
[1] = Viability of A2780/DOX cells (resazurin); settings: human
Experimental: To determine the NO production, the medium was mixed with Griess reagent (0.04 g/mL, prepared in deionized water) in a 1:1 ratio. After 15 min, absorbance was recorded at 540 nm. To determine cell viability, the resazurin solution (0.03 mg/mL in PBS) was added to the cells. After 2 h of incubation, fluorescence was recorded (560/590 nm, ex./em.).
A multidrug resistant ovarian sub-line resistant to doxorubicin (A2780/DOX, Sigma-Aldrich) was cultivated in DMEM medium with 10% FBS and 1 × antibiotic antimycotic solution. Every other passage, doxorubicin at the final concentration of 0.1 µM was added to the culture medium to maintain the resistance of the cell line. To perform experiments, the cells were seeded at 1 × 10^5 cell/mL into the wells of a 96-well plate and incubated for 24 h. Afterwards, the cells were washed with PBS and fresh DMEM medium with tested compounds at 10, 20 and 30 µM were added to each well, except for the control wells. Subsequently, the cells were exposed to increasing concentrations of doxorubicin (0.6–20 µM) for 72 h. After incubation, the resazurin assay was performed as described above. The IC50 of doxorubicin was calculated for both the control and the samples and the fold change was counted up. […] The fold change lower than 1 means an antagonistic effect. (1) FOLD CHANGE=IC50 value of DOX cells treated with chemotherapeutic /IC50 value of DOX cells treated with chemotherapeutic and compound

[2] = tested on: ABCF2; experiment: ABCF2 mRNA expression (real-time PCR); type: cell-based, human; settings: A2780/DOX, 10 µM combined with doxorubicin at IC25, 48 h
Experimental: (§1) The A2780/DOX cell line was seeded into 5 cm Petri dishes with DMEM medium at 1 × 10^5 cell/mL. After 24 h, the dishes were washed with PBS and new DMEM medium supplemented with doxorubicin (at concentration equal to IC25) and samples (10 µM) were added. After 48 h of treatment, the cells were washed with PBS and harvested using the standard trypsin-EDTA procedure. The harvested cells were centrifuged (3200× g; 10 min, 4 °C). The supernatant was discarded, and the pellets were washed with 1.5 mL of cooled PBS (5400× g; 10 min, 4 °C). The washing step was repeated with 1 mL of PBS and the cells were centrifuged again (10,000× g; 3 min, 4 °C). Afterwards, the pellets were resuspended in 1 mL of Trizol (Invitrogen, Carlsbad, CA, USA) and transferred into pre-cooled RNase-free microfuge tubes. The samples were stored at −80 °C.
(§2) A Quant-iT RiboGreen RNA Assay Kit (Invitrogen) was used to determine the RNA concentration using the Infinite M200 plate reader (Tecan, Männedor, Switzerland). The cDNA was prepared from 0.5 µg of total RNA using a RevertAid First Strand Synthesis cDNA Kit (MBI Fermentas, Vilnius, Lithuania). The amplification of the ubiquitin C gene fragment was used to determine the quality of cDNA.
(§3) The experiment was performed using the ViiA7 Real-Time polymerase chain reaction (PCR) System (Life Technologies, Camarillo, CA, USA) with a 384-well block. Before quantitative real-time PCR, the master mix was prepared by mixing 2 µL of 8 × diluted cDNA, 1.75 µL of RNase free water, 1 µL of 5 × HotFIREPol Probe quantitative PCR Mix Plus (Solis Biodyne, Tartu, Estonia) and 0.25 µL of specific 20 × TaqMan Gene Expression Assay (Life Technologies), giving 5 µL of final reaction volume. Cycling parameters were: initial hold at 50 °C for 2 min and denaturation at 95 °C for 10 min, followed by 45 cycles consisting of denaturation at 95 °C for 15 s and annealing/extension at 60 °C for 1 min. After each extension phase, the fluorescence values were acquired. Duplicate samples were used for measurement and samples with a standard deviation of duplicates > 1.0 cycle threshold (Ct) were re-analyzed. The real time PCR procedure was maintained according to MIQE (Minimum information for publication of quantitative real-time PCR experiments) guidelines. The software REST 2009 (Qiagen, Hilden, Germany) served to compare relative transcript levels of genes in the cell line.

[3] = tested on: ABCG1; experiment: ABCG1 mRNA expression (real-time PCR); type: cell-based, human; settings: A2780/DOX
Experimental: as §1, §2, §3

[4] = tested on: ABCF2; experiment: ABCF2 mRNA expression (real-time PCR); type: cell-based, human; settings: A2780/DOX, 10 µM, 48 h, without doxorubicin
[5] = tested on: ABC superfamily genes; experiment: Expression profile of ABC superfamily genes (real-time PCR); type: cell-based, human; settings: 10 µM, 48 h, without doxorubicin
Experimental: as §1, with “After 24 h, the dishes were washed with PBS and new DMEM medium supplemented with doxorubicin (at concentration equal to IC25) and samples (10 µM) were added.” left out
(§4) A Quant-iT RiboGreen RNA Assay Kit (Invitrogen) was used to determine the RNA concentration using the Infinite M200 plate reader (Tecan, Männedor, Switzerland). […]
(§5) The experiment was performed using the ViiA7 Real-Time polymerase chain reaction (PCR) System (Life Technologies, Camarillo, CA, USA) with a 384-well block. Before quantitative real-time PCR, the master mix was prepared by mixing 2 µL of 8 × diluted cDNA, 1.75 µL of RNase free water, 1 µL of 5 × HotFIREPol Probe quantitative PCR Mix Plus (Solis Biodyne, Tartu, Estonia) and 0.25 µL of specific 20 × TaqMan Gene Expression Assay (Life Technologies), giving 5 µL of final reaction volume. […] After each extension phase, the fluorescence values were acquired. […]

[6] = tested on: ABCE1; experiment: ABCE1 mRNA expression (real-time PCR); type: cell-based, human; settings: A2780/DOX, 10 µM, 48 h, without doxorubicin
Experimental: as §1, §2, §3

[7] = tested on: ABCB7; experiment: ABCB7 mRNA expression (real-time PCR); type: cell-based, human; settings: A2780/DOX, 10 µM, 48 h, without doxorubicin
Experimental: as §1, with “After 24 h, the dishes were washed with PBS and new DMEM medium supplemented with doxorubicin (at concentration equal to IC25) and samples (10 µM) were added.” left out
as §4, §5

[8] = tested on: ABCA7; experiment: ABCA7 mRNA expression (real-time PCR); type: cell-based, human; settings: A2780/DOX, 10 µM, 48 h, without doxorubicin
Experimental: as §1, with “After 24 h, the dishes were washed with PBS and new DMEM medium supplemented with doxorubicin (at concentration equal to IC25) and samples (10 µM) were added.” left out
as §4, §5

[9] = tested on: ABCD4; experiment: ABCD4 mRNA expression (real-time PCR); type: cell-based, human; settings: A2780/DOX, 10 µM, 48 h, without doxorubicin
Experimental: as §1, §2
as §5, with “acquired. Duplicate samples were used for measurement and samples with a standard deviation of duplicates > 1.0 cycle threshold (Ct) were re-analyzed. The real time PCR procedure was maintained according to MIQE (Minimum information for publication of quantitative real-time PCR experiments) guidelines.” for “acquired.”

[10] = tested on: ABCB8; experiment: ABCB8 mRNA expression (real-time PCR); type: cell-based, human; settings: A2780/DOX, 10 µM, 48 h, without doxorubicin
Experimental: as §1, with “After 24 h, the dishes were washed with PBS and new DMEM medium supplemented with doxorubicin (at concentration equal to IC25) and samples (10 µM) were added.” left out
as §2
as §5, with “acquired. Duplicate samples were used for measurement and samples with a standard deviation of duplicates > 1.0 cycle threshold (Ct) were re-analyzed. The real time PCR procedure was maintained according to MIQE (Minimum information for publication of quantitative real-time PCR experiments) guidelines.” for “acquired.”

[11] = parameters: method as in PMID 15465345, PMID 19138735; settings: cited from earlier work
[12] = parameters: method as in PMID 15465345, PMID 19138735; settings: cited from earlier work; remark: listed apart in the source
[13] = tested on: ABCC2 (MRP2); experiment: ABCC2 mRNA expression (real-time PCR); type: cell-based, human; settings: 10 µM, 48 h, without doxorubicin
Experimental: as §1, with “After 24 h, the dishes were washed with PBS and new DMEM medium supplemented with doxorubicin (at concentration equal to IC25) and samples (10 µM) were added.” left out
as §2
as §5, with “acquired. Duplicate samples were used for measurement and samples with a standard deviation of duplicates > 1.0 cycle threshold (Ct) were re-analyzed. The real time PCR procedure was maintained according to MIQE (Minimum information for publication of quantitative real-time PCR experiments) guidelines.” for “acquired.”

[14] = tested on: ABCB1 (P-gp); experiment: ABCB1 mRNA expression (real-time PCR); type: cell-based, human; settings: 10 µM, 48 h, without doxorubicin
Experimental: as §1, with “After 24 h, the dishes were washed with PBS and new DMEM medium supplemented with doxorubicin (at concentration equal to IC25) and samples (10 µM) were added.” left out
as §2
as §5, with “acquired. Duplicate samples were used for measurement and samples with a standard deviation of duplicates > 1.0 cycle threshold (Ct) were re-analyzed. The real time PCR procedure was maintained according to MIQE (Minimum information for publication of quantitative real-time PCR experiments) guidelines.” for “acquired.”

[15] = tested on: ABCB3; experiment: ABCB3 mRNA expression (real-time PCR); type: cell-based, human; settings: A2780/DOX, 10 µM, 48 h, without doxorubicin
Experimental: as §1, with “After 24 h, the dishes were washed with PBS and new DMEM medium supplemented with doxorubicin (at concentration equal to IC25) and samples (10 µM) were added.” left out
as §4, §5

[16] = 10 µM combined with doxorubicin at IC25, 48 h
[17] = 10 µM, 48 h, without doxorubicin

| SMILES | viability at 20 µM [1] | ABCF2 Expression Difference [2] | ABCG1 Expression Difference [3, 16] | ABCF2 Expression Difference [4] | ABCE1 Expression Difference [6] | ABCB7 Expression Difference [7] | ABCD4 Expression Difference [9] | ABCB8 Expression Difference [10] | ABCG1 Expression Difference [3, 17] | also measured |
| --- | --- | --- | --- | --- | --- | --- | --- | --- | --- | --- |
| COc1cc([C@@H]2Oc3cc(-c4oc5cc(O)cc(O)c5c(=O)c4O)ccc3O[C@H]2CO)ccc1O [Dehydrosilybin B, 2,3-dehydrosilybin B] | < 80% | 1.226 | 2.931 | 1.334 | – | – | – | – | – | – |
| COc1cc([C@H]2Oc3cc([C@H]4Oc5cc(O)cc(O)c5C(=O)[C@@H]4O)ccc3O[C@@H]2CO)ccc1O [Silybin A, silybin A] | – | 1.242 | – | – | – | – | – | – | – | – |
| COc1cc(C2Oc3cc([C@H]4Oc5cc(O)cc(O)c5C(=O)[C@@H]4O)ccc3OC2CO)ccc1O (stereo partly shown) [Silybin AB, silybin] | – | 1.463 | 1.559 | 1.326 | 1.558 | 1.803 | 1.882 | 1.503 | 2.416 | number of ABC genes with increased expression [5]: 20; ABCA7 Expression Difference [8]: 2.704 |
| COc1cc(C2Oc3cc(-c4oc5cc(O)cc(O)c5c(=O)c4O)ccc3OC2CO)ccc1O (stereo not shown) [Dehydrosilybin AB, 2,3-dehydrosilybin] | < 80% | 1.343 | 1.826 | 1.418 | 1.408 | 1.463 | – | – | – | inhibition of lipid peroxidation compared to silybin [11]: 10 fold; radical scavenging compared to silybin [12]: 25 fold |
| COc1cc([C@@H]2Oc3cc([C@H]4Oc5cc(O)cc(O)c5C(=O)[C@@H]4O)ccc3O[C@H]2CO)ccc1O [Silybin B, silybin B] | – | – | – | 0.307 | 0.391 | – | 0.370 | 0.413 | 0.303 | number of ABC genes with altered expression ([5]; out of 42 tested): 24; ABCE1 Treated vs. Untreated [6]: DOWN; downregulation of ABCC2 (MRP2) expression [13]: 66%; ABCC2 Expression Difference ([13]; A2780/DOX): 0.341; ABCC2 Treated vs. Untreated ([13]; A2780/DOX): DOWN; ABCD4 Treated vs. Untreated [9]: DOWN; downregulation of ABCB1 (P-gp) expression [14]: 79%; ABCB1 Expression Difference ([14]; A2780/DOX): 0.208; ABCB1 Treated vs. Untreated ([14]; A2780/DOX): DOWN; ABCB8 Treated vs. Untreated [10]: DOWN; ABCG1 Treated vs. Untreated [3, 17]: DOWN; ABCB3 Expression Difference [15]: 0.365; ABCB3 Treated vs. Untreated [15]: DOWN; ABCF2 Treated vs. Untreated [4]: DOWN |
| COc1cc([C@H]2Oc3cc(-c4oc5cc(O)cc(O)c5c(=O)c4O)ccc3O[C@@H]2CO)ccc1O [Dehydrosilybin A, 2,3-dehydrosilybin A] | – | 1.044 | 2.714 | 1.198 | – | – | – | – | – | viability at 50 µM [1]: < 80% |

— publication PMC7278776, “Multidrug Resistance Modulation Activity of Silybin Derivatives and Their Anti-Inflammatory Potential” (Antioxidants, 2020)
